Legend:
[1] = biological target: T1, Muscarinic acetylcholine receptor M4 (Homo sapiens, UniProt P08173); assay type: cell membranes, CHO-K1, Membrane; details: cho-k1; also: in other assays of this panel Not Active means under 50% inhibition at 10 µM
T1 sequence (P08173 whole entry): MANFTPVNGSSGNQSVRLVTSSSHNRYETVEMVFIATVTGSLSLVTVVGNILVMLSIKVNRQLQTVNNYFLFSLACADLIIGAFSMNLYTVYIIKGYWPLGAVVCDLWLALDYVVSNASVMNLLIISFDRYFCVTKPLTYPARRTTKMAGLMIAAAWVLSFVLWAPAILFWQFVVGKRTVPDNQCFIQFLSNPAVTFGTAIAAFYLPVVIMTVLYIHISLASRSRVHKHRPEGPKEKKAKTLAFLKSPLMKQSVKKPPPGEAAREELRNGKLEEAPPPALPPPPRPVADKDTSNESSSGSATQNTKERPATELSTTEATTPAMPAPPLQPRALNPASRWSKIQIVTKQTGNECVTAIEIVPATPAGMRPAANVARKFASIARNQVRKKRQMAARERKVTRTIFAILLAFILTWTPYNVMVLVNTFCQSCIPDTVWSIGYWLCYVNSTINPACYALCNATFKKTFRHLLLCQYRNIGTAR

[2] = biological target: T2, Progesterone receptor (Bos taurus, UniProt Q690N0); test: DRUGMATRIX: Progesterone radioligand binding (ligand: [3H] R-5020); assay type: tissue-based, Uterus; details: Not Active = under 50% inhibition at 10 µM
T2 sequence (Q690N0 whole entry): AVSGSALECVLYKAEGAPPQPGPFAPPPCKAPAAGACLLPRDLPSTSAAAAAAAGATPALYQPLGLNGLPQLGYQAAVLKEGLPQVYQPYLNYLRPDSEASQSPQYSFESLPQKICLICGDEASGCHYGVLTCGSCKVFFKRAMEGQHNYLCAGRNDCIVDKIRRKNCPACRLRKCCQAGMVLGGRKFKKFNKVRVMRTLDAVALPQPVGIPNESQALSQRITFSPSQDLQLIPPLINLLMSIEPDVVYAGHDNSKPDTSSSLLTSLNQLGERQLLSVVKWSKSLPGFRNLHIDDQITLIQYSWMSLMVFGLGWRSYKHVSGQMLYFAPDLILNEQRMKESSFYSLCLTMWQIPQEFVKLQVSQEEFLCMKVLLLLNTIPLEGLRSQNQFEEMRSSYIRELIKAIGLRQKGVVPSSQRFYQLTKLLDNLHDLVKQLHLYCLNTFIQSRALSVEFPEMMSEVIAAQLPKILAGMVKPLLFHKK

[3] = DRUGMATRIX: Potassium Channel [KATP] radioligand binding (ligand: [3H] Glyburide); assay type: cell membranes, Membrane; details: hit-t15; Not Active = under 50% inhibition at 10 µM
[4] = biological target: T3, Leukotriene C4 synthase (Cavia porcellus, UniProt A6XA80); assay type: tissue-based, Lung;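 also: enzyme inhibition assay of leukotriene C4 synthase, using LTA4 as the substrate; in other assays of this panel Not Active means under 50% inhibition at 10 µM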
T3 sequence (A6XA80 whole entry): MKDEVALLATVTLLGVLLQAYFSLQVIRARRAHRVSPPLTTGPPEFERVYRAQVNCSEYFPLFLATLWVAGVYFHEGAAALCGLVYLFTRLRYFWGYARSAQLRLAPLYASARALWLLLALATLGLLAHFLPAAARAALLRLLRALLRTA

[5] = biological target: Mitogen-activated protein kinase 3 (Homo sapiens, UniProt P27361); test: DRUGMATRIX: Protein Serine/Threonine Kinase, ERK1 enzyme inhibition (substrate: Myelin Basic Protein); set-up: species or system Escherichia coli; details: Not Active = under 50% inhibition at 10 µM
Chain of Mitogen-activated protein kinase 3 (P27361 whole entry): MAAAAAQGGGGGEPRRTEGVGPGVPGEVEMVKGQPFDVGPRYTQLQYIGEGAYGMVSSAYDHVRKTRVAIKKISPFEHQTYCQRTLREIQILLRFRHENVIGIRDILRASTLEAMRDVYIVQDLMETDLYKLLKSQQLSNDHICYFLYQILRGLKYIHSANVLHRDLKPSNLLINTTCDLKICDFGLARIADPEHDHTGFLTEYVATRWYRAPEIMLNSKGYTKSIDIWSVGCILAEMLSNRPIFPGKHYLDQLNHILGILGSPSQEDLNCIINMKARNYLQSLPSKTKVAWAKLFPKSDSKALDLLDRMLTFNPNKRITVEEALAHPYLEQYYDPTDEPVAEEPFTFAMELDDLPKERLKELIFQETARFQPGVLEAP

[6] = biological target: Adenosine receptor A2a (Homo sapiens, UniProt P29274); test: DRUGMATRIX: Adenosine A2A radioligand binding (ligand: […]); assay type: cell membranes, HEK293, Membrane; details: hek293; Not Active = under 50% inhibition at 10 µM
Chain of Adenosine receptor A2a (P29274 whole entry): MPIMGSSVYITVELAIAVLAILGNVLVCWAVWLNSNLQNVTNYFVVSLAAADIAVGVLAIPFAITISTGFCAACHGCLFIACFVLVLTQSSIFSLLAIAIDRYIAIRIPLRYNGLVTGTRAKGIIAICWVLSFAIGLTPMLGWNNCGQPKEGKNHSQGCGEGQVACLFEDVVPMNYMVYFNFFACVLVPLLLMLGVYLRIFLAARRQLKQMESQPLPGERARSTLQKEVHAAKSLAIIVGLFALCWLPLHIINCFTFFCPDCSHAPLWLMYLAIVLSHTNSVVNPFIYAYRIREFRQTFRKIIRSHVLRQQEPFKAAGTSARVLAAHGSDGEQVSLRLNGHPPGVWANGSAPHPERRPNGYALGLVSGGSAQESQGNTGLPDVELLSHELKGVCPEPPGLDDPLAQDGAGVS

[7] = biological target: Prostaglandin G/H synthase 1 (Homo sapiens, UniProt P23219); test: biochemical; assay type: tissue-based, Platelet; details: platelet;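 also: inhibition of COX-1 enzyme activity, with arachidonic acid supplied as substrate; in other assays of this panel Not Active means under 50% inhibition at 10 µM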
Chain of Prostaglandin G/H synthase 1 (P23219 whole entry): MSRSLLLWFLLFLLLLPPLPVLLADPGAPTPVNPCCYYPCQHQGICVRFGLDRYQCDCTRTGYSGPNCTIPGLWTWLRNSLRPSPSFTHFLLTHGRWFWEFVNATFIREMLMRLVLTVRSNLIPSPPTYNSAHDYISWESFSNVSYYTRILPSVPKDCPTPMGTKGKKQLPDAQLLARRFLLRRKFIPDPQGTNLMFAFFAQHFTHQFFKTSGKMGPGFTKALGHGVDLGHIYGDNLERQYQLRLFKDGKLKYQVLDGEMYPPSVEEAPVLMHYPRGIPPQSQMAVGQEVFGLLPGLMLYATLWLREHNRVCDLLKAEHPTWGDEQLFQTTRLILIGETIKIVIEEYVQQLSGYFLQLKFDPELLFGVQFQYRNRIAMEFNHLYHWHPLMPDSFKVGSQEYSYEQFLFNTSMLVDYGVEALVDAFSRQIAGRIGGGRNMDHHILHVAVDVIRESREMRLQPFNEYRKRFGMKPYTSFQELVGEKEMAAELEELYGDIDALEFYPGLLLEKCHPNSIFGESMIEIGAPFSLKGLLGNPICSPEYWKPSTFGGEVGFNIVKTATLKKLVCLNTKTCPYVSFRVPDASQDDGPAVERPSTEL

[8] = biological target: Glycine receptor (Rattus norvegicus, UniProt P22771+P24524+P07727+P20781); assay type: cell membranes, Wistar, Spinal cord, Membrane; also: in other assays of this panel Not Active means under 50% inhibition at 10 µM
[9] = DRUGMATRIX: Phosphodiesterase PDE4 enzyme inhibition (substrate: [3H]cAMP + cAMP); details: u-937; Not Active = under 50% inhibition at 10 µM
[10] = biological target: Beta-2 adrenergic receptor (Homo sapiens, UniProt P07550); test: DRUGMATRIX: Adrenergic beta2 radioligand binding (ligand: [3H] CGP-12177); assay type: cell membranes, Membrane; details: cho; Not Active = under 50% inhibition at 10 µM
Chain of Beta-2 adrenergic receptor (P07550 whole entry): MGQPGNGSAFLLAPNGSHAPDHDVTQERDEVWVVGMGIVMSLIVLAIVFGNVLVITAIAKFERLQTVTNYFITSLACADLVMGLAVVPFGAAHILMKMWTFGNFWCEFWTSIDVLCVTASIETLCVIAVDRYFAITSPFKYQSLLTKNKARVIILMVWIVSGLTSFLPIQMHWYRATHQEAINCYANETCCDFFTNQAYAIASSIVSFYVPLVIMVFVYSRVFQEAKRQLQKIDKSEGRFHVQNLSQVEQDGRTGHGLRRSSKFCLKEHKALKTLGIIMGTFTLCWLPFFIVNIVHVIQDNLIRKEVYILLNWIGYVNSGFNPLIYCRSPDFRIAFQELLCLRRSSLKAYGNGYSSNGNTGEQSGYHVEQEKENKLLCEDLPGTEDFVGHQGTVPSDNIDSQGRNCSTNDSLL

[11] = biological target: T4, Alpha-2C adrenergic receptor (Homo sapiens, UniProt P18825); test: DRUGMATRIX: Adrenergic Alpha-2C radioligand binding (ligand: [3H] MK-912); assay type: cell membranes, Sf9, Membrane; details: sf9
T4 sequence (P18825 whole entry): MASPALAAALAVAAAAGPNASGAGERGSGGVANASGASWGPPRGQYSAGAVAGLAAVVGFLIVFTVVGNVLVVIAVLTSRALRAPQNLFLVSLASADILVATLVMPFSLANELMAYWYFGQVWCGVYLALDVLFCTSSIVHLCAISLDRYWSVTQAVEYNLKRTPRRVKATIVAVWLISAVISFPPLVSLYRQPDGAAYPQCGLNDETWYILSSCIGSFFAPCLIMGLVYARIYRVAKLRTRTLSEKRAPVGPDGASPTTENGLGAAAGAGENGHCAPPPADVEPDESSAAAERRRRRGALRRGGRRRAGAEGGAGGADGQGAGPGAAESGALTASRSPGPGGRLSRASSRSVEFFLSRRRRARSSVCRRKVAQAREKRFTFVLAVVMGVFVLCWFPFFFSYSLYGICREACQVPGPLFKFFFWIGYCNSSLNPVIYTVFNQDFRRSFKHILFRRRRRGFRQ

O=C1CCC(N2C(=O)c3ccccc3C2=O)C(=O)N1 (centres undefined) [THALIDOMIDE]
Not Active: IC50 [1] | IC50 [2] | IC50 [3] | Ki [3] | IC50 [4] | IC50 [5] | IC50 [6] | IC50 [7] | IC50 [8] | IC50 [9] | Ki [9] | IC50 [10] | IC50 [11]

Cc1cccc(Nc2ccncc2S(=O)(=O)NC(=O)NC(C)C)c1 [TORSEMIDE]
Not Active: IC50 [1] | IC50 [2] | IC50 [3] | Ki [3] | IC50 [4] | IC50 [5] | IC50 [6] | IC50 [7] | IC50 [8] | IC50 [9] | Ki [9] | IC50 [10] | IC50 [11]

CC(C)C[C@H](NC(=O)[C@@H](O)[C@H](N)Cc1ccccc1)C(=O)O [UBENIMEX]
Not Active: IC50 [1] | IC50 [2] | IC50 [3] | Ki [3] | IC50 [4] | IC50 [5] | IC50 [6] | IC50 [7] | IC50 [8] | IC50 [9] | Ki [9] | IC50 [10] | IC50 [11]

Cc1onc(-c2ccccc2)c1-c1ccc(S(N)(=O)=O)cc1 [VALDECOXIB]
Not Active: IC50 [1] | IC50 [2] | IC50 [3] | Ki [3] | IC50 [4] | IC50 [5] | IC50 [6] | IC50 [7] | IC50 [8] | IC50 [9] | Ki [9] | IC50 [10] | IC50 [11]

CC[C@]1(O)C[C@@H]2CN(CCc3c([nH]c4ccccc34)[C@@](C(=O)OC)(c3cc4c(cc3OC)N(C)[C@H]3[C@@](O)(C(=O)OC)[C@H](OC(C)=O)[C@]5(CC)C=CCN6CC[C@]43[C@@H]65)C2)C1 [VINBLASTINE]
Not Active: IC50 [1] | IC50 [2] | IC50 [3] | Ki [3] | IC50 [4] | IC50 [5] | IC50 [6] | IC50 [7] | IC50 [8] | IC50 [9] | Ki [9] | IC50 [10] | IC50 [11]

CC(=O)CC(c1ccccc1)c1c(O)c2ccccc2oc1=O (centres undefined) [WARFARIN]
Not Active: IC50 [1] | IC50 [2] | IC50 [3] | Ki [3] | IC50 [4] | IC50 [5] | IC50 [6] | IC50 [7] | IC50 [8] | IC50 [9] | Ki [9] | IC50 [10] | IC50 [11]

C[C@@H](N)[C@H]1CC[C@H](C(=O)Nc2ccncc2)CC1 [Y-27632]
Not Active: IC50 [1] | IC50 [2] | IC50 [3] | Ki [3] | IC50 [4] | IC50 [5] | IC50 [6] | IC50 [7] | IC50 [8] | IC50 [9] | Ki [9] | IC50 [10] | IC50 [11]

[Cl-].[Cl-].[Zn+2] [ZINC CHLORIDE]
Not Active: IC50 [1] | IC50 [2] | IC50 [3] | Ki [3] | IC50 [4] | IC50 [5] | IC50 [6] | IC50 [7] | IC50 [8] | IC50 [9] | Ki [9] | IC50 [10] | IC50 [11]

Source: ChEMBL document CHEMBL1909046, “DrugMatrix in vitro pharmacology data”
